Assay type in all cases: physicochemical
A short description of series [1]: Dynamic moisture adsorption and desorption analysis (DVS). The note with it: for crystal form after DVS test (XRPD): before and after DVS test; for hygroscopicity (DVS): moisture range 0% to 90%. As for the experimental part: The instrument model used for dynamic moisture adsorption and desorption analysis was IGA Sorp (Hidentity Isochema). The samples were measured in a gradient mode with a moisture range of 0% to 90%, wherein the humidity increment of each gradient was 10%.

Series [2] is described as follows: Stability study of the crystal form VI of compound A (high temperature, high humidity, light).
Series [3] in a line: Solubility study in SGF, FaSSIF and FeSSIF (HPLC of filtrate, XRPD of solid). The conditions noted are these: 37° C.; for Crystal form: XRPD of solid. As for the experimental part:
The solubilities of the crystal form I of compound A and the crystal form I of compound A p-toluenesulfonate in SGF (simulated gastric fluid), FaSSIF (fasted state simulated intestinal fluid) and FeSSIF (fed state simulated intestinal fluid) were studied.
The solubilities of samples in SGF, FaSSIF and FeSSIF at 37° C. for 24 hours were determined. 40 mg of the sample was placed in a sample bottle, and 1.5 mL of solvent was added. The mixture was mixed well, and shaken on a shaker at 200 rpm for 24 hours. The suspension was filtered at 0.5, 2 and 24 hours. The filtrate was analyzed by HPLC, and the solid was tested by XRPD.

Series [4] is described as follows: Stability study of the crystal form I of compound A and the crystal form I of compound A p-toluenesulfonate (HPLC, XRPD). As for the experimental part:
A certain amount of samples of the crystal form I of compound A and the crystal form I of compound A p-toluenesulfonate (Batch No.: PTSA-A1) were placed in a stability test chamber, and kept at 40° C./75%RH and 60° C. for 7 days, respectively. The samples were tested by HPLC and XRPD at various time points.

The text below walks through data of patent US20230322717A1, “SOLID FORM OF PYRAZINE SUBSTITUTED NICOTINAMIDE, AND PREPARATION AND USE THEREOF” (Shenzhen TargetRx, Inc., priority 2020, published 2023).

In brackets after ≈: the same amount, converted by molar mass.

Take `O=C(Nc1ccc(OC(F)(F)Cl)cc1)c1cnc(N2CC[C@@H](F)C2)c(-c2cnccn2)c1.O=S(=O)(O)c1ccccc1` [(R)-N-(4-(chlorodifluoromethoxy)phenyl)-6-(3-fluoropyrrolidin-1-yl)-5-(pyrazin-2-yl)nicotinamide benzenesulfonate]: the water absorption entry in series [1] (0-60%RH) is recorded as “about 0.4%”. In series [1] (0-90%RH), the water absorption result is given as “about 1.5%”. In series [1], the “crystal form after DVS test (XRPD)” value is given as “not changed” and the “hygroscopicity (DVS)” value is on record as “slightly hygroscopic”.
In the case of `O=C(Nc1ccc(OC(F)(F)Cl)cc1)c1cnc(N2CC[C@@H](F)C2)c(-c2cnccn2)c1` [the crystal form VI of compound A], the Appearance result in series [2] (0 day) is reported as “Off-white powder”; in series [2] (25° C./92.5%RH, 10 days), “Off-white powder”; in series [2] (25° C./92.5%RH, 30 days), “Off-white powder”; in series [2] (40° C./75%RH, 10 days), “Off-white powder”; in series [2] (40° C./75%RH, 30 days) it was “Off-white powder”; in series [2] (60° C., 10 days), “Off-white powder”. For the same compound, the Appearance entry is “Off-white powder” in series [2] (60° C., 30 days) and “Off-white powder” in series [2] (Light, 10 days). Further, the Content in series [2] (0 day) turned out to be 99.40%; in series [2] (25° C./92.5%RH, 10 days) it was 98.40%; in series [2] (25° C./92.5%RH, 30 days), 98.80%; in series [2] (40° C./75%RH, 10 days), 98.40%; in series [2] (40° C./75%RH, 30 days) it was 101.40%; in series [2] (60° C., 10 days) it was 99.90%. Also, the Content in series [2] (60° C., 30 days) came to 96.90%; in series [2] (Light, 10 days), 99.70%. Besides, the Crystal form result in series [2] (0 day) was “The crystal form VI”; in series [2] (25° C./92.5%RH, 10 days), “The crystal form VI”; in series [2] (25° C./92.5%RH, 30 days), “The crystal form VI”; in series [2] (40° C./75%RH, 10 days) it was “The crystal form VI”; in series [2] (40° C./75%RH, 30 days) it was “The crystal form VI”; in series [2] (60° C., 10 days) it was “The crystal form VI”. For the same compound, the Crystal form entry is given as “The crystal form VI” in series [2] (60° C., 30 days) and “The crystal form VI” in series [2] (Light, 10 days). Besides, the Impurity content was found to be 0.87% in series [2] (0 day); 0.80% in series [2] (25° C./92.5%RH, 10 days); 0.85% in series [2] (25° C./92.5%RH, 30 days); 0.79% in series [2] (40° C./75%RH, 10 days); 0.80% in series [2] (40° C./75%RH, 30 days); 0.81% in series [2] (60° C., 10 days). Also, the Impurity content turned out to be 0.84% in series [2] (60° C., 30 days) and 0.85% in series [2] (Light, 10 days). Besides, the Hygroscopic weight gain in series [2] (25° C./92.5%RH, 10 days) is on record as 0.34%; in series [2] (25° C./92.5%RH, 30 days), 2.72%; in series [2] (40° C./75%RH, 10 days) it was 1.26%; in series [2] (40° C./75%RH, 30 days), 1.26%.
As for `Br.O=C(Nc1ccc(OC(F)(F)Cl)cc1)c1cnc(N2CC[C@@H](F)C2)c(-c2cnccn2)c1` [(R)-N-(4-(chlorodifluoromethoxy)phenyl)-6-(3-fluoropyrrolidin-1-yl)-5-(pyrazin-2-yl)nicotinamide hydrobromide], the water absorption result in series [1] (0-80%RH) was “about 0.67%”. Moreover, in series [1], the “crystal form after DVS test (XRPD)” value is “not changed” and the “hygroscopicity (DVS)” value is “slightly hygroscopic”.
Take `Cl.O=C(Nc1ccc(OC(F)(F)Cl)cc1)c1cnc(N2CC[C@@H](F)C2)c(-c2cnccn2)c1` [(R)-N-(4-(chlorodifluoromethoxy)phenyl)-6-(3-fluoropyrrolidin-1-yl)-5-(pyrazin-2-yl)nicotinamide hydrochloride]: the water absorption result in series [1] (0-40%RH (relative humidity)) is “about 0.4%”. The water absorption result in series [1] (0-90%RH) is on record as “about 2.8%”. Further, in series [1], the “crystal form after DVS test (XRPD)” value is listed as “not changed” and the “hygroscopicity (DVS)” value is listed as “slightly hygroscopic”.
As for `CS(=O)(=O)O.O=C(Nc1ccc(OC(F)(F)Cl)cc1)c1cnc(N2CC[C@@H](F)C2)c(-c2cnccn2)c1` [crystal form I of compound A mesylate, (R)-N-(4-(chlorodifluoromethoxy)phenyl)-6-(3-fluoropyrrolidin-1-yl)-5-(pyrazin-2-yl)nicotinamide mesylate], the water absorption entry in series [1] (0-80%RH) was “about 3.6%”. The water absorption entry in series [1] (0-90%RH) is given as “about 40.3%”. In addition, in series [1], the “crystal form after DVS test (XRPD)” value is reported as “not changed” and the “hygroscopicity (DVS)” value is listed as “hygroscopic”.
On to `Cc1ccc(S(=O)(=O)O)cc1.O=C(Nc1ccc(OC(F)(F)Cl)cc1)c1cnc(N2CC[C@@H](F)C2)c(-c2cnccn2)c1`, for which the “Solubility” value in series [3] (FaSSIF, 0.5 h) worked out at 4.5 µg/mL; in series [3] (FaSSIF, 2 h), 3.7 µg/mL; in series [3] (FaSSIF, 24 h), 16 µg/mL; in series [3] (FeSSIF, 0.5 h) it was 100 µg/mL; in series [3] (FeSSIF, 2 h), 93 µg/mL; in series [3] (FeSSIF, 24 h) it was 180 µg/mL. The “Solubility” value in series [3] (SGF, 0.5 h) turned out to be 97 µg/mL; in series [3] (SGF, 2 h), 67 µg/mL; in series [3] (SGF, 24 h), 45 µg/mL. The pH in series [3] (FaSSIF, 0.5 h) was determined as 6.38; in series [3] (FaSSIF, 2 h) it was 3.48; in series [3] (FaSSIF, 24 h), 1.91; in series [3] (FeSSIF, 0.5 h), 4.53; in series [3] (FeSSIF, 2 h), 4.51; in series [3] (FeSSIF, 24 h), 4.50. For the same compound, the pH in series [3] (SGF, 0.5 h) is reported as 1.23; in series [3] (SGF, 2 h), 1.19; in series [3] (SGF, 24 h), 1.18. Besides, the Crystal form entry in series [3] (FaSSIF, 0.5 h) was “Changed”; in series [3] (FaSSIF, 2 h) it was “Changed”; in series [3] (FaSSIF, 24 h), “Changed”; in series [3] (FeSSIF, 0.5 h) it was “Changed”; in series [3] (FeSSIF, 2 h), “Changed”; in series [3] (FeSSIF, 24 h), “Changed”. The Crystal form entry in series [3] (SGF, 0.5 h) was “Initial crystal form”; in series [3] (SGF, 2 h) it was “Initial crystal form”; in series [3] (SGF, 24 h) it was “Changed”; in series [4] (40° C./75% RH, Day 3, XRPD), “Initial crystal form”; in series [4] (40° C./75% RH, Day 7, XRPD) it was “Initial crystal form”; in series [4] (60° C., Day 3, XRPD) it was “Initial crystal form”. In addition, in series [4] (60° C., Day 7, XRPD), the Crystal form entry is recorded as “Initial crystal form”. Besides, the Purity is 97.9% in series [4] (40° C./75% RH, Day 0, HPLC); 97.9% in series [4] (40° C./75% RH, Day 3, HPLC); 97.9% in series [4] (40° C./75% RH, Day 7, HPLC); 97.9% in series [4] (60° C., Day 0, HPLC); 97.9% in series [4] (60° C., Day 3, HPLC); 97.9% in series [4] (60° C., Day 7, HPLC).
As for `O=C(Nc1ccc(OC(F)(F)Cl)cc1)c1cnc(N2CC[C@@H](F)C2)c(-c2cnccn2)c1` [The crystal form I of compound A], the “Solubility” value was determined as 4.2 µg/mL (≈ 9.05 µM) in series [3] (FaSSIF, 0.5 h); 4.8 µg/mL (≈ 10.3 µM) in series [3] (FaSSIF, 2 h); 4.3 µg/mL (≈ 9.27 µM) in series [3] (FaSSIF, 24 h); 220 µg/mL (≈ 474 µM) in series [3] (FeSSIF, 0.5 h); 180 µg/mL (≈ 388 µM) in series [3] (FeSSIF, 2 h); 57 µg/mL (≈ 123 µM) in series [3] (FeSSIF, 24 h). The “Solubility” value in series [3] (SGF, 0.5 h) was 120 µg/mL (≈ 259 µM); in series [3] (SGF, 2 h), 63 µg/mL (≈ 136 µM); in series [3] (SGF, 24 h) it was 46 µg/mL (≈ 99.2 µM). Moreover, the pH was 6.62 in series [3] (FaSSIF, 0.5 h); 6.63 in series [3] (FaSSIF, 2 h); 6.63 in series [3] (FaSSIF, 24 h); 5.04 in series [3] (FeSSIF, 0.5 h); 5.05 in series [3] (FeSSIF, 2 h); 5.02 in series [3] (FeSSIF, 24 h). Moreover, the pH in series [3] (SGF, 0.5 h) is 1.24; in series [3] (SGF, 2 h) it was 1.24; in series [3] (SGF, 24 h), 1.23. The Crystal form entry is recorded as “Initial crystal form” in series [3] (FaSSIF, 0.5 h); “Changed” in series [3] (FaSSIF, 2 h); “Changed” in series [3] (FaSSIF, 24 h); “Initial crystal form” in series [3] (FeSSIF, 0.5 h); “Changed” in series [3] (FeSSIF, 2 h); “Changed” in series [3] (FeSSIF, 24 h). Moreover, the Crystal form entry was “Initial Crystal form” in series [3] (SGF, 0.5 h); “Changed” in series [3] (SGF, 2 h); “Changed” in series [3] (SGF, 24 h); “Initial crystal form” in series [4] (40° C./75% RH, Day 3, XRPD); “Initial crystal form” in series [4] (40° C./75% RH, Day 7, XRPD); “Initial crystal form” in series [4] (60° C., Day 3, XRPD). Moreover, the Crystal form result in series [4] (60° C., Day 7, XRPD) is listed as “Initial crystal form”. Moreover, the Purity came to 96.1% in series [4] (40° C./75% RH, Day 0, HPLC); 97.1% in series [4] (40° C./75% RH, Day 3, HPLC); 97.1% in series [4] (40° C./75% RH, Day 7, HPLC); 96.1% in series [4] (60° C., Day 0, HPLC); 96.7% in series [4] (60° C., Day 3, HPLC); 97.1% in series [4] (60° C., Day 7, HPLC).

As a reminder, the Solubility is the concentration that dissolves in the medium under given conditions. Read a low Solubility as little dissolved substance.
